Experimental data reported in patent US10005818B2, “Derivative peptide compounds and methods of use” (REALTA HOLDINGS, LLC, priority 2010, dated 2018).
Like-named read-outs stand apart in the source and are kept apart here. Square brackets hold non-standard residues; d marks the D form. Ends that are not written are not given here. Peptide text beside a SMILES is read from it. Sar = CNCC(=O)O

Key:
CV-1 cells = assay: Toxicity in CV-1 cells
HSV-1 = assay: HSV-1-GFP infection of CV-1 cells, flow cytometry; type: cell-based, Herpes Simplex Virus Type 1; details: added to CV-1 cells before infection; 16 hours
Experimental: CV-1 cells were infected with HSV-1-GFP for 16 hours. Post-infection, CV-1 cells were detected by flow cytometry (FIG. 33). […] Acyclovir (the standard of care for severe HSV-1 infections) was also added as a control at the same molar ratio.

[1] = for ALT / AST / AlkPhos / BUN / Bilirubin / CPK / Creatinine / GGT / Lipase / Platelets / RBC / WBC: rats
Experimental: Toxicity studies were later performed with larger numbers of animals (n=18 in the treatment group) using a high-dose at the upper end of the therapeutic range (PA-PEG24 (SEQ ID NO: 21) at 40 mg [160 mg/kg] i.v.). Eight animals were sacrificed at day 3, and ten were sacrificed at day 14.

Solubility in water = type: physicochemical
[2] = 60 mg [240 mg/kg] i.v.; for ALT / AST / AlkPhos / BUN / Bilirubin / CPK / Creatinine / GGT / Lipase / Platelets / RBC / WBC: rats, n = 6
[3] = tested on: complement activation in factor B-depleted human sera; type: biochemical; details: for inhibition of complement activity in hemolytic assay: factor B depleted serum
Method in brief: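 Peptides at 0.77 mM final in factor B-depleted human serum, or serially diluted in it, incubated 1 h at 37 °C. Then diluted into GVBS++ with sensitized sheep RBCs for 1 h at 37 °C, with hemolysis read at 412 nm. Percent lysis relative to serum-only control, soluble peptides normalized to water and insoluble ones to DMSO, triplicate means.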

acute kidney injury = assay: Acute kidney injury after xenotransfusion in AIHTR rat model (IVIG vs PIC1); type: in vivo; details: prophylaxis 40 mg/animal
Experimental: For both experiments, animals allotted to the saline control group received NS prior to huRBC transfusion whereas the CVF group received 130 μg CVF (Complement Technologies, Inc.) intra-peritoneum (I.P.) 24 hours prior to the huRBC transfusion.
Using weight-based doses of ketamine and acepromazine, animals were sedated throughout the course of the experiment with periodic monitoring of vital signs. Blood samples were collected into EDTA microtainer tubes (BD) from the animals prior to the huRBC transfusion and then at 30 seconds, 5 minutes, 20 minutes, 60 minutes and 120 minutes after the huRBC transfusion. […] These samples were kept shaking at room temperature prior to processing and centrifuged at 2655×g for five minutes to separate out the plasma and sediment the RBCs. Plasma was aliquoted and the RBC pellet was processed separately as described below. Upon completion of the final (120 minutes or 360 minutes) blood draw, the animal was euthanized using Fatal Plus (Vortech). A necropsy was completed to collect organs (liver, spleen and bilateral kidney) for histopathology. […] Hematoxylin and eosin (H&E) stained sections were reviewed by a blinded pathologist.
To ascertain if the intravascular toxic free Hb would cause acute kidney injury, the animals were monitored for 6 hours post-transfusion.

[4] = tested on: hypoxic ischemic brain injury; type: in vivo, Wistar rat
[5] = tested on: complement-mediated hemolysis of transfused huRBCs; assay: AIHTR Wistar rat model, 15% xenotransfusion of human RBCs; type: in vivo; details: CVF 130 μg I.P. 24 hours prior to transfusion
Experimental: This process generates 1 ml huRBCs at 80% hematocrit, which was given as a 15% transfusion to the rats.
Plasma generated from the above experiments was analyzed for the free hemoglobin using spectrophotometry, as described previously (Shah et al. “Clinical hypothermia temperatures increase complement activation and cell destruction via the classical pathway.” J Transl Med 2014; 12:181.).

[6] = 40 mg [160 mg/kg] i.v., 48 Hr, n = 8
[7] = 40 mg [160 mg/kg] i.v., Day14, n = 10
[8] = Table 7, PEGylated and sarcosine/alanine substitution peptides

## Nc1nc2c(ncn2COCCO)c(=O)[nH]1 [Acyclovir, reference compound]
CV-1 cells
  toxicity in CV-1 cells: minimal toxicity
HSV-1
  inhibition of HSV-1 infection / replication: never able to completely inhibit replication

## CC[C@H](C)[C@H](N)C(=O)N[C@@H](C)C(=O)N[C@@H](CC(C)C)C(=O)N[C@H](C(=O)N[C@@H](CC(C)C)C(=O)N[C@@H](CCC(=O)O)C(=O)N1CCC[C@H]1C(=O)N[C@H](C(=O)N[C@@H](CS)C(=O)N[C@@H](CS)C(=O)N[C@@H](CCC(N)=O)C(=O)N[C@@H](CCC(=O)O)C(=O)N[C@@H](CCCNC(=N)N)C(=O)N[C@@H](C)C(=O)N[C@@H](C)C(=O)NCCOCCOCCOCCOCCOCCOCCOCCOCCOCCOCCOCCOCCOCCOCCOCCOCCOCCOCCOCCOCCOCCOCCOCCOCCC(=O)O)[C@@H](C)CC)[C@@H](C)CC [PA-dPEG24]
[1]; 40 mg [160 mg/kg] i.v.
  blood chemistry assay results (CBC, superchem, coagulation): no differences between pretreatment, day 3 or day 14 values
[1]; 40 mg [160 mg/kg] i.v., day 3 and day 14
  organ histology: no histological evidence for toxicity in any organ
[1]; rat, in vivo
  single-dose toxicological evaluation: no safety concerns
[1]; [6]
  ALT: 62.8 (±4.0) U/L
  AST: 108 (±26) U/L
  AlkPhos: 104 (±19) U/L
  BUN: 17.8 (±3.2) mg/dL
  Bilirubin: 0.1 (±0) mg/dL
  CPK: 538 (±128) U/L
  Creatinine: 0.3 (±0) mg/dL
  GGT: 1.0 (±0) U/L
  Lipase: 11.8 (±1.5) U/L
  Platelets: 987 (±93) 10^3/μL
  RBC: 5.8 (±0.5) 10^6/μL
  WBC: 6.0 (±3.0) 10^3/mL
[1]; [7]
  ALT: 77.4 (±13.9) U/L
  AST: 111 (±14) U/L
  AlkPhos: 115 (±56) U/L
  BUN: 13.2 (±1.9) mg/dL
  Bilirubin: 0.1 (±0) mg/dL
  CPK: 592 (±163) U/L
  Creatinine: 0.3 (±0) mg/dL
  GGT: 1.1 (±0.4) U/L
  Lipase: 6.4 (±1.3) U/L
  Platelets: 825 (±229) 10^3/μL
  RBC: 6.6 (±0.4) 10^6/μL
  WBC: 7.3 (±2.5) 10^3/mL
CV-1 cells
  toxicity in CV-1 cells: minimal toxicity
Solubility in water
  solubility in water / aqueous solutions: soluble in water
Solubility in water; Table 6, PEGylated PA peptides
  Solubility in water: Yes
Solubility in water; [8]
  Solubility in water: Yes
[2]; brain, heart, lungs, liver, spleen, kidneys, pancreas
  organ histology: Normal histology
[2]; first 24 hours, 48 hours, day 7 or day 14
  blood work (CBC and complete blood chemistry): No toxicities
[2]; 48 Hr
  ALT: 44.0 (±10.4) U/L
  AST: 69.0 (±8.7) U/L
  AlkPhos: 194 (±29) U/L
  BUN: 15.8 (±2.1) mg/dL
  Bilirubin: 0.1 (±0) mg/dL
  CPK: 142 (±47) U/L
  Creatinine: 0.3 (±0) mg/dL
  GGT: 1 (±0) U/L
  Lipase: 10.3 (±1.5) U/L
  Platelets: 1045 (±156) 10^3/μL
  RBC: 5.3 (±0.3) 10^6/μL
  WBC: 10.5 (±2.9) 10^3/mL
[2]; Day7
  ALT: 76.3 (±10.9) U/L
  AST: 84.3 (±6.74) U/L
  AlkPhos: 147 (±34) U/L
  BUN: 13.5 (±1.64) mg/dL
  Bilirubin: 0.1 (±0) mg/dL
  CPK: 316 (±90) U/L
  Creatinine: 0.4 (±0.1) mg/dL
  GGT: 1 (±0) U/L
  Lipase: 8.5 (±1.05) U/L
  Platelets: 623 (±417) 10^3/μL
  RBC: 5.8 (±0.5) 10^6/μL
  WBC: 5.4 (±1.12) 10^3/mL
[2]; Day14
  ALT: 55.8 (±5.6) U/L
  AST: 104 (±15) U/L
  AlkPhos: 154 (±42) U/L
  BUN: 14.7 (±1.0) mg/dL
  Bilirubin: 0.1 (±0) mg/dL
  CPK: 580 (±172) U/L
  Creatinine: 0.4 (±0.1) mg/dL
  GGT: 1 (±0) U/L
  Lipase: 9.7 (±2.0) U/L

## CC[C@H](C)[C@H](N)C(=O)N[C@@H](C)C(=O)N[C@@H](CC(C)C)C(=O)N[C@H](C(=O)N[C@@H](CC(C)C)C(=O)N[C@@H](CCC(=O)O)C(=O)N1CCC[C@H]1C(=O)N[C@H](C(=O)N(C)CC(=O)N[C@@H](CS)C(=O)N(C)CC(=O)N[C@@H](CCC(=O)O)C(=O)N[C@@H](CCCNC(=N)N)C(=O)N[C@@H](C)C(=O)N[C@@H](C)C(=O)O)[C@@H](C)CC)[C@@H](C)CC [Peptide Q11SarC9Sar] (H-IALILEPI[Sar]C[Sar]ERAA-OH)
[3]
  Hemolysis (%): 15.42%
Solubility in water; [8]
  Solubility in water: Yes

## CC[C@H](C)[C@H](N)C(=O)N[C@@H](C)C(=O)N[C@@H](CC(C)C)C(=O)N[C@H](C(=O)N[C@@H](CC(C)C)C(=O)N[C@@H](CCC(=O)O)C(=O)N(C)CC(=O)N[C@H](C(=O)N[C@@H](CS)C(=O)N[C@@H](CS)C(=O)N(C)CC(=O)N[C@@H](CCC(=O)O)C(=O)N[C@@H](CCCNC(=N)N)C(=O)N[C@@H](C)C(=O)N[C@@H](C)C(=O)O)[C@@H](C)CC)[C@@H](C)CC [Peptide Q11SarP7Sar, IALILE(Sar)ICC(Sar)ERAA] (H-IALILE[Sar]ICC[Sar]ERAA-OH; N-terminus and C-terminus assumed)
[3]
  Hemolysis (%): 3.22%
Solubility in water; [8]
  Solubility in water: Yes

## CC[C@H](C)[C@H](N)C(=O)N[C@@H](C)C(=O)N[C@@H](CC(C)C)C(=O)N[C@H](C(=O)N[C@@H](CC(C)C)C(=O)N[C@@H](CCC(=O)O)C(=O)N1CCC[C@H]1C(=O)N[C@H](C(=O)N(C)CC(=O)N[C@@H](CS)C(=O)N[C@@H](CCC(N)=O)C(=O)N[C@@H](CCC(=O)O)C(=O)N(C)CC(=O)N[C@@H](C)C(=O)N[C@@H](C)C(=O)O)[C@@H](C)CC)[C@@H](C)CC [Peptide R13SarC9Sar] (H-IALILEPI[Sar]CQE[Sar]AA-OH)
[3]
  Hemolysis (%): 84.81%
Solubility in water; [8]
  Solubility in water: No

## CC[C@H](C)[C@H](N)C(=O)N[C@@H](C)C(=O)N[C@@H](CC(C)C)C(=O)N[C@H](C(=O)N[C@@H](CC(C)C)C(=O)N[C@@H](CCC(=O)O)C(=O)N(C)CC(=O)N[C@H](C(=O)N[C@@H](CS)C(=O)N[C@@H](CS)C(=O)N[C@@H](CCC(N)=O)C(=O)N[C@@H](CCC(=O)O)C(=O)N(C)CC(=O)N[C@@H](C)C(=O)N[C@@H](C)C(=O)O)[C@@H](C)CC)[C@@H](C)CC [Peptide R13SarP7Sar, IALILE(Sar)ICCQE(Sar)AA] (H-IALILE[Sar]ICCQE[Sar]AA-OH)
[3]
  Hemolysis (%): 26.35%
Solubility in water; [8]
  Solubility in water: No

## ALILEPICC[Sar]ERAA (cysteine pairing not given here) [PA-Q11Sar]
[3]
  Hemolysis (%): 3.02%
Solubility in water; Table 5, sarcosine substitution peptides
  Solubility in water: No

## Immune globulin intravenous [IVIG]
Acute kidney injury
  gross appearance of kidneys at necropsy: looked darker and enlarged
  kidney weight: significant increase in weight compared to animals receiving PIC1
Acute kidney injury; 6 hours post-transfusion
  gross hematuria / urine appearance: two of the three animals
Acute kidney injury; H&E
  kidney histopathology: early acute tubular necrosis

## cobra venom factor [CVF]
[4]; CVF injection before ligation/hypoxia
  brain injury: almost completely attenuated brain injury
[4]; CVF injection, for 72 hours after injection
  systemic complement activity: almost completely eliminated
[5]
  free hemoglobin in rat plasma: low levels of free hemoglobin

## dPEG24-IALILEPICCQERAA (cysteine pairing not given here) [dPEG24-PA]
[3]
  inhibition of complement activity in hemolytic assay: varying degrees of complement inhibition
Solubility in water
  solubility in water / aqueous solutions: soluble in water

## dPEG24-IALILEPICCQERAA-dPEG24 (cysteine pairing not given here) [dPEG24-PA-dPEG24]
[3]
  inhibition of complement activity in hemolytic assay: varying degrees of complement inhibition
Solubility in water
  solubility in water / aqueous solutions: soluble in water
